Measured values: patent US20020132809A1, “Heterocyclic carboxamide derivatives as inhibitors of nitric oxide production” (Fujisawa Pharmaceutical Co. Ltd., priority 1998, published 2002)

System: not given
Assay: not given
Details: not given

Compound | melting point
Cn1c(-c2ccc(N3CCOCC3)c(F)c2)cnc1[C@H](Cc1ccccn1)N(C=O)c1cc2cc(Cl)ccc2o1 [Example 19, (1S)-(5-Chlorobenzo[b]furan-2-yl)-N-[1-[5-(3-fluoro-4-morpholinophenyl)-1-methylimidazol-2-yl]-2-(2-pyridyl)ethyl]formamide] | 134 to 135 °C
Cn1c(-c2ccc(-c3ccco3)cc2)cnc1[C@H](Cc1ccccn1)N(C=O)c1cc2cc(Cl)ccc2o1 [Example 16, (1S)-(5-Chlorobenzo[b]furan-2-yl)-N-[1-[5-[4-(2-furyl)phenyl]-1-methylimidazol-2-yl]-2-(2-pyridyl)ethyl]formamide] | 144 to 146 °C
Cn1c(-c2ccc(-c3cccs3)cc2)cnc1[C@H](Cc1ccccn1)N(C=O)c1cc2cc(Cl)ccc2o1 [Example 17, (1S)-(5-Chlorobenzo[b]furan-2-yl)-N-[1-[1-methyl-5-[4-(2-thienyl)-phenyl]imidazol-2-yl]-2-(2-pyridyl)ethyl]formamide] | 110 to 114 °C
Cn1c(-c2ccc([N+](=O)[O-])cc2)cnc1[C@H](Cc1ccccn1)N(C=O)c1cc2cc(C(F)(F)F)ccc2o1 [Example 39, (1S)-N-[1-[1-Methyl-5-(4-nitrophenyl)imidazol-2-yl]-2-(2-pyridyl)-ethyl][5-(trifluoromethyl)benzo[b]furan-2-yl]formamide] | 192 to 194 °C
Cn1c(-c2ccc(-c3cncs3)cc2)cnc1[C@H](Cc1ccccn1)N(C=O)c1cc2cc(Cl)ccc2o1 [Example 38, (1S)-(5-Chlorobenzo[b]furan-2-yl)-N-[1-[1-methyl-5-[4-(5-thiazolyl)phenyl]imidazol-2-yl]-2-(2-pyridyl)ethyl]formamide] | 165 to 167 °C
Cn1c(-c2ccc(N3CCOCC3)cc2)cnc1[C@H](Cc1ccccn1)N(C=O)c1cc2cc(Br)ccc2o1 [Example 2, (1S)-(5-Bromobenzo[b]furan-2-yl)-N-[1-[1-methyl-5-(4-morpholinophenyl)imidazol-2-yl]-2-(2-pyridyl)ethyl]formamide] | 173 to 174 °C
Cn1c(-c2ccc([N+](=O)[O-])cc2)cnc1[C@H](Cc1ccccn1)N(C=O)c1cc2cc(F)ccc2o1 [Example 63, (1S)-(5-Fluorobenzo[b]furan-2-yl)-N-[1-[1-methyl-5-(4-nitrophenyl)imidazol-2-yl]-2-(2-pyridyl)ethyl]formamide] | 207 to 208 °C
Cn1c(-c2ccc(N3CCOCC3)cc2)cnc1[C@H](Cc1ccccn1)N(C=O)c1cc2cc(F)ccc2o1 [Example 4, (1S)-(5-Fluorobenzo[b]furan-2-yl)-N-[1-[1-methyl-5-(4-morpholinophenyl)imidazol-2-yl]-2-(2-pyridyl)ethyl]formamide] | 130 to 132 °C
Cn1c(-c2ccc([N+](=O)[O-])cc2)cnc1[C@H](Cc1ccccn1)N(C=O)c1cc2cc(Cl)ccc2o1 [Example 12, (1S)-(5-Chlorobenzo[b]furan-2-yl)-N-[1-[1-methyl-5-(4-nitrophenyl)imidazol-2-yl]-2-(2-pyridyl)ethyl]formamide] | 199 to 201 °C

More lines, now with the values ahead:

melting point | Compound
171 to 174 °C | Cn1c(-c2ccc(-c3ccccc3)cc2)cnc1[C@H](Cc1ccccn1)N(C=O)c1cc2cc(Cl)ccc2o1 [Example 10, (1S)-N-[1-[5-(4-Biphenylyl)-1-methylimidazol-2-yl]-2-(2-pyridyl)-ethyl](5-chlorobenzo[b]furan-2-yl)formamide]
190 to 193 °C | Cn1c(-c2ccc(-n3ccnc3)cc2)cnc1[C@H](Cc1ccccn1)N(C=O)c1cc2ccccc2s1 [Compound (c), (1S)-(benzo[b]thiophen-2-yl)-N-[1-[5-[4-(1-imidazolyl) -phenyl]-1-methylimidazol-2-yl]-2-(2-pyridyl)ethyl]formamide]
92 to 98 °C | CCCn1c(-c2ccc(-n3ccnc3)cc2)cnc1[C@H](Cc1ccccn1)N(C=O)c1cc2cc(C(F)(F)F)ccc2o1 [Example 30, (1S)-N-[1-[5-[4-(1-Imidazolyl)phenyl]-1-propylimidazol-2-yl]-2-(2-pyridyl)ethyl][5-(trifluoromethyl)benzo[b]furan-2-yl]formamide]
207 to 211 °C | Cc1nccn1-c1ccc(-c2cnc([C@H](Cc3ccccn3)N(C=O)c3cc4ccccc4[nH]3)n2C)cc1 [Example 14, (1S)-(Indol-2-yl)-N-[1-[1-methyl-5-[4-(2-methylimidazol-1-yl)-phenyl]imidazol-2-yl]-2-(2-pyridyl)ethyl]formamide]
103 to 104 °C | Cn1c(-c2ccc([N+](=O)[O-])cc2)cnc1[C@H](Cc1ccccn1)N(C=O)c1cc2ccccc2o1 [Example 64, (1S)-(Benzo[b]furan-2-yl)-N-[1-[1-methyl-5-(4-nitrophenyl)imidazol-2-yl]-2-(2-pyridyl)ethyl]formamide]
255 to 260 °C (dec.) | CCn1c(-c2ccc(-n3ccnc3)cc2)cnc1[C@H](Cc1ccncc1)N(C=O)c1cc2ccccc2[nH]1 [Compound (e), (1S)-N-[1-[1-ethyl-5-[4-(1-imidazolyl)phenyl]imidazol-2-yl]-2-(4-pyridyl)ethyl](indol-2-yl)formamide]
198 to 203 °C | CCn1c(-c2ccc(-n3ccnc3)cc2)cnc1[C@H](Cc1ccccn1)N(C=O)c1cc2cc(Cl)ccc2o1.Cl.Cl.Cl
77 to 81 °C | CCCn1c(-c2ccc(-n3ccnc3)cc2)cnc1[C@H](Cc1ccccn1)N(C=O)c1cc2cc(F)ccc2o1 [Example 56, (1S)-(5-Fluorobenzo[b]furan-2-yl)-N-[1-[5-[4-(1-imidazolyl)-phenyl]-1-propylimidazol-2-yl]-2-(2-pyridyl)ethyl]formamide]
93 to 99 °C | CCCn1c(-c2ccc(-n3ccnc3)cc2)cnc1[C@H](Cc1ccccn1)N(C=O)c1cc2cc(Br)ccc2o1 [Example 44, (1S)-(5-Bromobenzo[b]furan-2-yl)-N-[1-[5-[4-(1-imidazolyl)phenyl]-1-propylimidazol-2-yl]-2-(2-pyridyl)ethyl]formamide]
152 to 155 °C | Cn1c(-c2ccc(-n3cnc4ccccc43)cc2)cnc1[C@H](Cc1ccccn1)N(C=O)c1cc2ccccc2o1 [Example 32, (1S)-N-[1-[5-[4-(1-Benzimidazolyl)phenyl]-1-methylimidazol-2-yl]-2-(2-pyridyl)ethyl](benzo[b]furan-2-yl)formamide]
174 to 176 °C | Cn1c(-c2ccc(-n3ccnc3)cc2)cnc1[C@H](Cc1ccccn1)N(C=O)c1cc2cc(C#N)ccc2o1 [Example 25, (1S)-(5-Cyanobenzo[b]furan-2-yl)-N-[1-[5-[4-(1-imidazolyl)-phenyl]-1-methylimidazol-2-yl]-2-(2-pyridyl)ethyl]formamide]
144 to 146 °C | Cn1c(-c2ccc(-c3nccs3)cc2)cnc1[C@H](Cc1ccccn1)N(C=O)c1cc2cc(Cl)ccc2o1 [Example 18, (1S)-(5-Chlorobenzo[b]furan-2-yl)-N-[1-[1-methyl-5-[4-(2-thiazolyl)phenyl]imidazol-2-yl]-2-(2-pyridyl)ethyl]formamide]
158 to 160 °C | Cn1c(-c2ccc(-c3cccnc3)cc2)cnc1[C@H](Cc1ccccn1)N(C=O)c1cc2cc(Cl)ccc2o1 [Example 34, (1S)-(5-Chlorobenzo[b]furan-2-yl)-N-[1-[1-methyl-5-[4-(3-pyridyl)-phenyl]imidazol-2-yl]-2-(2-pyridyl)ethyl]formamide]

System: rat cardiac allograft
Assay: Protective effect of the compound (a) combined with FK506 on rat cardiac allograft
Assay type: in vivo
Details: single-drug group: FK506 0.32 mg/kg, daily gastric intubation for 14 days; Lewis donor to ACI recipient heterotopic cardiac transplantation
Procedure: Test 2: Protective Effect of the Compound (a) Combined with FK 506 on Rat Cardiac Allograft
Experiments were performed on male Lewis and ACI rats weighing 175-200 g. Rats were anesthetized with sodium pentobarbital (50 mg/kg, i.p.), and underwent allogeneic (Lewis donor to ACI recipient) heterotopic intra-abdominal cardiac transplantation. Experimental groups were divided into single-drug group and combined-drug group. Single-drug dose of FK506, which was prepared in a manner similar to that disclosed in EP-0184162, was 0.32 mg/kg. Combined-drug dose was FK506 (0.32 mg/kg)+the compound (a) (10 mg/kg). The grafted hearts were monitored by daily palpation where complete rejection was defined as the cessation of palpable contractile activity. Each drug was suspended in a solution of 0.5% methylcellulose, and administered by daily gastric intubation in a volume of 5 ml/kg of body weight for 14 days.
The combination of the compound (a) and an immunosuppressive agent (FK506) was examined to determine whether it could improve rat cardiac allograft survival.

Compound | MST (day) (Median Survival Time) [days]
C=CC[C@@H]1/C=C(\C)C[C@H](C)C[C@H](OC)[C@H]2O[C@@](O)(C(=O)C(=O)N3CCCC[C@H]3C(=O)O[C@H](/C(C)=C/[C@@H]3CC[C@@H](O)[C@H](OC)C3)[C@H](C)[C@@H](O)CC1=O)[C@H](C)C[C@@H]2OC [FK506] | 10
